Assay results from patent US20120177701A1, “COMPOSITIONS COMPRISING IMMUNOSTIMULATORY NUCLEIC ACIDS AND RELATED METHODS” (priority 2010, published 2012).

Experiments:
[1] = target: T1, human TLR9 (Homo sapiens, UniProt Q9NR96); assay type: cell-based
T1 construct: expressed in transfected cells; host or cells: HEK-Blue hTLR9 (HEK293-derived reporter line)
T1 sequence (Q9NR96 26-1032): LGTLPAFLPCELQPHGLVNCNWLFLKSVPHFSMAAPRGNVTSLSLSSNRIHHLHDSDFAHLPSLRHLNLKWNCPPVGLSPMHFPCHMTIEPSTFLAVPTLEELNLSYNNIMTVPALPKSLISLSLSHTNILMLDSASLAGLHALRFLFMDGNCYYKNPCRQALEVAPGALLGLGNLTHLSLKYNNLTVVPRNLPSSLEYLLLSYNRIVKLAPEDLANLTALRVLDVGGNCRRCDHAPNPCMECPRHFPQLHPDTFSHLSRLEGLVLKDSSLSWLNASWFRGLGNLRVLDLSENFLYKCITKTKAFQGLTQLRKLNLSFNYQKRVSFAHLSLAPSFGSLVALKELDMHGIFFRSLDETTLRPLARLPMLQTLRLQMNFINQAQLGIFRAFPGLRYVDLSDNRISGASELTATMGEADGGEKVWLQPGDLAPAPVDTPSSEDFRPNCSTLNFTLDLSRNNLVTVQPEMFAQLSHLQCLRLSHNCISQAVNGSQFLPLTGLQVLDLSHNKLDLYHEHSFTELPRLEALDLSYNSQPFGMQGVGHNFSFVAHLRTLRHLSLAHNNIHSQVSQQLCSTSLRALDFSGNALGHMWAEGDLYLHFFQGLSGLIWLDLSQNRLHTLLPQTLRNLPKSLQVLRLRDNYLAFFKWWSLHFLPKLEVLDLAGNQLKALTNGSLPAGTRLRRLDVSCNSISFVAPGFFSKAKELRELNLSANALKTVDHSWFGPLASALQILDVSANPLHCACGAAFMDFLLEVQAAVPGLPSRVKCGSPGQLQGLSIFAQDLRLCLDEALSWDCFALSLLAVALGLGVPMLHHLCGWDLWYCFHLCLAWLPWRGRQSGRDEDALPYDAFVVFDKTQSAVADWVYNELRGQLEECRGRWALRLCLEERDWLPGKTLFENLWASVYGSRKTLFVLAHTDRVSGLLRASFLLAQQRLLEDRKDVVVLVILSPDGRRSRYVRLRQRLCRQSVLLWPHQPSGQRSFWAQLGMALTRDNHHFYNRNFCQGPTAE

[2] = test system: J774 murine macrophages; assay: TNF-α induction in mouse macrophage cell line J774; assay type: cell-based
Method: Induction of TNF-α by macrophages is a hallmark of human TLR8 activation (Forsbach et al., 2008, J. Immunol., 180:3729-38; Ghosh et al., 2007, Int. Immunopharmacol., 7:1111-21; Gorden et al., 2005, J. Immunol., 174:1259-68). […] In the following experiment mouse macrophage cell line, J774, has been transfected by test ribonucleotides as described above for HEK-Blue™ hTLR8 cells (with the exception that 2-10×10^4 cells/well were used) and TNF-α was measured in culture supernatants at 16-20 hours after transfection.

[3] = target: T2, human TLR8 (Homo sapiens, UniProt Q9NR97); assay: HEK-Blue hTLR8 NF-kB-inducible SEAP reporter assay (TLR8 activation); assay type: cell-based
T2 construct: host or cells: HEK293 (HEK-Blue hTLR8) with NF-kB-inducible SEAP reporter
T2 sequence (Q9NR97 27-1041): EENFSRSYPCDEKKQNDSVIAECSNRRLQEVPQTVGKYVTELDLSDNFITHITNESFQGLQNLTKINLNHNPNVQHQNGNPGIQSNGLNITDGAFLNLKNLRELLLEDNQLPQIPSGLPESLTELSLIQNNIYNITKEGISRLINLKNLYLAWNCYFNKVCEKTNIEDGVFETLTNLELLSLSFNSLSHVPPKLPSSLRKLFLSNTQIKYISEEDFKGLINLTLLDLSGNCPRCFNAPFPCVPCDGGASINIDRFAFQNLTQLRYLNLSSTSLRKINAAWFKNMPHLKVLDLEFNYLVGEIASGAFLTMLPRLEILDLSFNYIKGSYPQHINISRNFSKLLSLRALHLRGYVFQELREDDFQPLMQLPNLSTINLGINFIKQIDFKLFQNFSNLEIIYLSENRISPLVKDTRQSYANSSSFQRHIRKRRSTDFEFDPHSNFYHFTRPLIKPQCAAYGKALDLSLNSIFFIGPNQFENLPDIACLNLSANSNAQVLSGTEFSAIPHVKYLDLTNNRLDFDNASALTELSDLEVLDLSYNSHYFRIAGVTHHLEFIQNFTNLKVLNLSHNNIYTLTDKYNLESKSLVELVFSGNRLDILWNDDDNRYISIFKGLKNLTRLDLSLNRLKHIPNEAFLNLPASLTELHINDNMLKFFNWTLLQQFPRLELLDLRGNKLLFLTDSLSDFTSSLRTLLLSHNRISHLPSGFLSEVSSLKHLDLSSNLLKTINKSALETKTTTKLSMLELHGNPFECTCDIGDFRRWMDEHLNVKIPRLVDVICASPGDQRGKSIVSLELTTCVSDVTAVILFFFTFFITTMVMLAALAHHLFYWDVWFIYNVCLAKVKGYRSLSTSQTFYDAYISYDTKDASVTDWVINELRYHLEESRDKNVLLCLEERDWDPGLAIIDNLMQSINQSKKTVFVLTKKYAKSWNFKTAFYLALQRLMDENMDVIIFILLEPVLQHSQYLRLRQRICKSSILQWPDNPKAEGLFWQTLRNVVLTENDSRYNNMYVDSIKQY

[4] = test system: primary human lymphocytes; assay type: cell-based
[5] = target: T3, human TLR3 (Homo sapiens, UniProt O15455); assay type: cell-based
T3 construct: expressed in transfected cells; host or cells: HEK-Blue hTLR3 (HEK293-derived reporter line)
T3 sequence (O15455 24-904): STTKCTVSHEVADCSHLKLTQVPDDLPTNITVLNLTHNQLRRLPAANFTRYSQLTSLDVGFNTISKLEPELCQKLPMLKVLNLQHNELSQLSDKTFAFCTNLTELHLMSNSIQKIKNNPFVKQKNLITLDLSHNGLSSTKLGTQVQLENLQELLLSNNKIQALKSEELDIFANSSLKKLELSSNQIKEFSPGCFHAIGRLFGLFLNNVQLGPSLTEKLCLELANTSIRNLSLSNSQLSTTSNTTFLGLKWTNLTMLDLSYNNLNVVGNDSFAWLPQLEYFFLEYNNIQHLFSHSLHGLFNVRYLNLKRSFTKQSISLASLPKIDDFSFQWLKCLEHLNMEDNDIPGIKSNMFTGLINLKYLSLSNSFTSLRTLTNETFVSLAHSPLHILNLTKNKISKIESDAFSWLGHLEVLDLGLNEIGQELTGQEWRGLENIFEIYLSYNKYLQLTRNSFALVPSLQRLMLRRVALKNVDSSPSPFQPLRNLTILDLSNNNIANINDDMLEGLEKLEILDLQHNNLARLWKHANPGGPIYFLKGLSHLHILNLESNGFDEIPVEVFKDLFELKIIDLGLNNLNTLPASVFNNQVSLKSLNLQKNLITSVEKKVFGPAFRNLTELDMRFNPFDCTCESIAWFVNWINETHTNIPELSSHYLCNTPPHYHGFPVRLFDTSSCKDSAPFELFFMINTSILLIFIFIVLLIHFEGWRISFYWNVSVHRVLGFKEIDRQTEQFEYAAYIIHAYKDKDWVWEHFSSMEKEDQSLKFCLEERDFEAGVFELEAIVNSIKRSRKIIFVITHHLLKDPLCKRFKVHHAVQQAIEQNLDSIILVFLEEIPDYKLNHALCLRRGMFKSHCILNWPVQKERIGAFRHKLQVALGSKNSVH

[6] = test system: HEK-Blue™ Null; assay type: cell-based, human

**Q.** “5′-AAGAAGAAAUAGAUUUAUUUUUAAAUUUUUGUGU-3′ [SL-0005]” was tested. Which “activation of SEAP expression” value [1] did it give?
**A.** No activation of SEAP expression

**Q.** And the “TNF-α induction, described in words” value [2]?
**A.** strongly induced TNF-α expression, to the level seen when R-0006 was used

**Q.** What about the “TLR8 activation (fold increase of SEAP induction over the background), described in words” value [3] of the same substance?
**A.** stronger levels of TLR8 activation

**Q.** And the “concentration at which TLR8 activation was detected starting” value [3]?
**A.** 40 nM

**Q.** And the “11-12(p40) induction” value [4]?
**A.** significant levels

**Q.** What about the IFNγ induction [4] of the same substance?
**A.** significant levels

**Q.** What about the “IL-4 induction (Th2-type cytokine)” value [4] of the same substance?
**A.** insignificant

**Q.** And the “IL-5 induction (Th2-type cytokine)” value [4]?
**A.** insignificant

**Q.** What about the IL-6 induction [4] of the same substance?
**A.** significant levels

**Q.** And the IL-10 induction [4]?
**A.** significant levels

**Q.** What about the IL-23 induction [4] of the same substance?
**A.** significant levels

**Q.** And the TNFα induction [4]?
**A.** significant levels

**Q.** What about the “activation of SEAP expression” value [5] of the same substance?
**A.** No activation of SEAP expression

**Q.** And the “activation of SEAP expression” value [6]?
**A.** No activation of SEAP expression
